These results are taken from ChEMBL document CHEMBL1145363, “Discovery of 6-ethyl-2,4-diaminopyrimidine-based small molecule renin inhibitors” (Bioorg Med Chem Lett, 2007).

One series concerns the target T1, Renin (Homo sapiens, UniProt P00797).
T1 sequence (P00797 whole entry): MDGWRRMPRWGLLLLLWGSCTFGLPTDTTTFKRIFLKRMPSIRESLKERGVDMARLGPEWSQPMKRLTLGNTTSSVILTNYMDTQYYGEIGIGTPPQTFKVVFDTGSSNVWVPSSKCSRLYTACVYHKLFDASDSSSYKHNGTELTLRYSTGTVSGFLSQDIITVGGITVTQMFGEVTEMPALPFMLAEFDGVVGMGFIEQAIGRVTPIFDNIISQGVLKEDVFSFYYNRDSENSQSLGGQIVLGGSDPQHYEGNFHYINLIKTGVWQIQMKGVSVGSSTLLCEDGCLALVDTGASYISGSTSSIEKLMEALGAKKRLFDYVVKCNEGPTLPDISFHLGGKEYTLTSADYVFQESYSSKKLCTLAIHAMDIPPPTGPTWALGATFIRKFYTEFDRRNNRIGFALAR
In words: Inhibition of renin.

For another series, the target named is Cytochrome P450 3A4 (Homo sapiens, UniProt P08684). In words: Inhibition of CYP3A4. Type of series: ADME.
Series [1] concerns the target Cathepsin D (Homo sapiens) (UniProt P07339). In words: Inhibition of cathepsin D at 100 uM.
A further series is filed under the species Homo sapiens. In words: Inhibition of pepsin at 100 uM.
Series [2] addresses T2, Cathepsin E (Homo sapiens) (UniProt P14091).
T2 sequence (whole entry): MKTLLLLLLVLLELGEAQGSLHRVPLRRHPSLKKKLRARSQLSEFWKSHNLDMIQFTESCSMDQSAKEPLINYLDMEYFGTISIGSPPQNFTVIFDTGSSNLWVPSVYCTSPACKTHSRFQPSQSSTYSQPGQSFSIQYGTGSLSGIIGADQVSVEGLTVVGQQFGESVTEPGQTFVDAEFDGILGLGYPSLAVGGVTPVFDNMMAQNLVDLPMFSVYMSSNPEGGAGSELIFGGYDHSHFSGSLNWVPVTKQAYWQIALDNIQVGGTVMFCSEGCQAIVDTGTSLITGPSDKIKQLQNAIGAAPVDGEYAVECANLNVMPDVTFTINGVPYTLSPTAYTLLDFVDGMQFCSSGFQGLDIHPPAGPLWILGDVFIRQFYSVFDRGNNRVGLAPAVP
In words: Inhibition of cathepsin E at 100 uM.

Series [3] in a line: Half life in human liver microsome. The format is ADME. The note with it: liver microsomes.
A short description of series [4]: Volume of distribution in Sprague-Dawley rat. Type of series: ADME, organism-based. As to conditions: in vivo, read-out: Vdss.
Series [5] is described as follows: Elimination half life in Sprague-Dawley rat. Type of series: ADME, organism-based. The note with it: in vivo.
Series [6] can be described thus: Solubility of the compound. The format is physicochemical.
A short description of series [7]: Plasma clearance in Sprague-Dawley rat. The format is ADME, organism-based.
A short description of series [8]: Oral bioavailability in Sprague-Dawley rat. Type of series: ADME, organism-based. The note with it: in vivo.

pIC50: −log10 of the molar value. Converted amounts (≈) assume the structure as drawn. Some results are limits rather than exact numbers.

Chain of Cytochrome P450 3A4 (P08684 whole entry): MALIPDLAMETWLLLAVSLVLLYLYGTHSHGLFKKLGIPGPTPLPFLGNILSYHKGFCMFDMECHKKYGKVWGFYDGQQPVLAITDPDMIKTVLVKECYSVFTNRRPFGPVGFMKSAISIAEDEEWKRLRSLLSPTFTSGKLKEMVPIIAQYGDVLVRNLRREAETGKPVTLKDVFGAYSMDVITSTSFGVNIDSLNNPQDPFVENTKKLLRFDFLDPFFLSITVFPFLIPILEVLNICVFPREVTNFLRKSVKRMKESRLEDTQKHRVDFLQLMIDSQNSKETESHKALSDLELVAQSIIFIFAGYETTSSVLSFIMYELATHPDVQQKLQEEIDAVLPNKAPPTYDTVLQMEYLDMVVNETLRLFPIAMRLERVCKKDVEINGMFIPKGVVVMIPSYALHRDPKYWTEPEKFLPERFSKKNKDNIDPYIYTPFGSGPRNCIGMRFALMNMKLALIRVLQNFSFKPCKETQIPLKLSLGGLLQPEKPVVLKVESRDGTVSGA
Chain of Cathepsin D (Homo sapiens) (P07339 65-162 limits assumed): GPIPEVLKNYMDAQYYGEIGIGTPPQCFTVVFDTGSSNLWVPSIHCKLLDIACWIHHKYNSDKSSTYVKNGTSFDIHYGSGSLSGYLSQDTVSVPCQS
Chain of Cathepsin D (Homo sapiens) (P07339 169-412 limits assumed): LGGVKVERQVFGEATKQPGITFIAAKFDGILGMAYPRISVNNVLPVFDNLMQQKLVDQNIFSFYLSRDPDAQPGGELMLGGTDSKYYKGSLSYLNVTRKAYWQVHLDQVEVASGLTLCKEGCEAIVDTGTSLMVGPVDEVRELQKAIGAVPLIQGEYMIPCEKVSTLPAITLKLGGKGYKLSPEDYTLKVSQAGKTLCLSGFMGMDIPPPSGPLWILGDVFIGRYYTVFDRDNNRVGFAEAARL

For the compound `CCc1nc(N)nc(N)c1-c1ccc(NCc2ccc(Cl)c(Cl)c2)cc1`, the negative-log IC50 (pIC50) (commonly the IC50 on a negative log10 scale, so that one unit is a factor of ten) against Renin is 4.57.

`CCc1nc(N)nc(N)c1-c1ccc2c(c1)N(CCNC(C)=O)CCC2`: the values for the pIC50 against Cytochrome P450 3A4 and against Renin were 5.10 and 6.75, respectively. For the same compound, the inhibition (in series [1]; in the series filed under Homo sapiens; in [2]) was 0% in each case.

`CCc1nc(N)nc(N)c1-c1ccc2c(c1)N(CCCC(=O)OC)CCC2`: the inhibition (in [1]; in the series filed under Homo sapiens; in series [2]) was 0% each time. The compound also gave a pIC50 against Renin of 6.92. Also, the half-life (in general, how long it takes for the measured level to halve) in [3] was determined as 5 min.

As to `CCc1nc(N)nc(N)c1-c1ccc2c(c1)N(CCC(=O)OC)CCC2`, the pIC50 at Cytochrome P450 3A4 is 5.00; against Renin, 6.70. The inhibition (in series [1]; in the series listed under Homo sapiens; in series [2]) was 0% in each case. Moreover, the half-life in series [3] was found to be 5 min.

Consider `CCc1nc(N)nc(N)c1-c1ccc2c(c1)N(CCCCC(=O)OC)CCC2`, for which the pIC50 at Cytochrome P450 3A4 was 4.92; at Renin it was 7.04. Further, the inhibition (in series [1]; in the series filed under Homo sapiens; in series [2]) was 0% throughout. This compound returned a half-life in series [3] of 5 min.

As to `CCc1nc(N)nc(N)c1-c1ccc2c(c1)N(CCCOC)CCC2`, the Vd in series [4] amounted to 1.6 L/kg. In [5], this compound showed a half-life of 66.6 min. Besides, the solubility (as a rule, the dissolved amount per volume that the medium holds) in series [6] came out at 59.3 µg/mL (≈ 174 µM). In addition, the clearance (in general, a measure of how efficiently the substance is removed, as volume per time) in series [7] worked out at 36.8 mL/min/kg. The bioavailability (as a rule, dose-corrected exposure relative to a reference, in per cent) in series [8] was less than 10%. Also, the pIC50 on Cytochrome P450 3A4 was 5.55; on Renin, 6.19. For the same compound, the inhibition (in series [1]; in the series filed under Homo sapiens; in series [2]) was 0% each time.

Turning to `COC[C@@H](O)CO[C@@H]1CNC[C@H](OCc2cc(OC)c3ccccc3c2)[C@H]1c1ccc(OCCCOCc2ccccc2OC)cc1`, the pIC50 against Renin is 10.17.

In the case of `CCc1nc(N)nc(N)c1-c1ccc(NCc2cc(F)cc(F)c2)cc1`, the negative-log IC50 (pIC50) against Renin is 5.40.

Take `COc1ccccc1COCCCOc1ccc(N2C(=O)CNC[C@@H]2COc2ccc3c(c2)N(CCNC(C)=O)CCC3)cc1`: on Renin, the pIC50 was 9.30.
